Experimental data from US11807881B2, “Polypeptide, fusion polypeptide, and antibiotic against gram-negative bacteria comprising same” (priority 2020, dated 2023).

Tests used:
[1] = system: Pseudomonas aeruginosa PA01; assay: Galleria mellonella Pseudomonas aeruginosa infected model, viability; format: in vivo; conditions: PA01 50 CFU/larva; LNT101 0.6 or 6 μg/larva, Colistin 0.5 μg/larva; observation for 72 hours
Procedure: The Pseudomonas aeruginosa killing ability of the endolysin LNT101 was also confirmed in vivo. As an animal model for the in vivo effectivity evaluation, Galleria mellonella was used. The Galleria mellonella model was divided into the healthy group (non-infection group), Pseudomonas aeruginosa infected group (drug non-administration group), 2 LNT101 administration groups in which LNT101 was administered into the infection model, Colistin administration group in which colistin was administered into the Pseudomonas aeruginosa infected model, and combination administration group in which LNT101 and colistin were administered in combination into the Pseudomonas aeruginosa infected model to progress an experiment, and 10 of Galleria mellonella per each group was used.
The Pseudomonas aeruginosa infected model was prepared by infecting Pseudomonas aeruginosa PA01 at the LD80 concentration, 50 CFU/larva, and LNT101 was administered at 0.6 μg/larva (3 mg/Kg) and 6 μg/larva (30 mg/Kg), respectively. Colistin was administered at 0.5 μg/larva (2.5 mg/Kg), and for administration in combination, Colistin at 0.5 μg/larva (2.5 mg/Kg) and LNT101 at 6 μg/larva (30 mg/Kg) were administered. […] In particular, in the LNT101 6 μg/larva (30 mg/Kg) administration group, the viability of 30% was confirmed.

[2] = system: P. aeruginosa; assay: MIC of polymyxin-based antibiotics with LNT101 (broth microdilution); format: cell-based; conditions: for reduction of MIC of the polymyxin-based antibiotic in combination with LNT101: LNT101 endolysin 1 μM; for MIC of antibiotics: P. aeruginosa 1×10^5 CFU/ml, 37° C. 18 hours, combination with LNT101 endolysin 1 μM, otherwise PBS
Procedure: The synergy effect by treatment in combination of the polymyxin-based antibiotic having a mechanism acting on the cell membrane of bacterium and endolysin LNT101 was confirmed. Specifically, polymyxin B (32 μg/ml-0.03 μg/ml) and colistin (128 μg/ml-0.1 μg/ml) were diluted by ½ per well in a microplate, and then a LNT101 endolysin 1 μM combination treatment group and the same amount of PBS treatment group was made. In all wells, P. aeruginosa 1×10^5 CFU/ml was treated by total 100 μl. After that, they were cultured at 37° C. for 18 hours.
The MIC change of the polymyxin-based antibiotic by combination treatment of the polymyxin-based antibiotic (polymyxin B, Colistin) and LNT101 endolysin at various concentrations was confirmed, and shown in Table 3 below.

[3] = system: E. coli(ATCC 8739); assay: MIC of polymyxin-based antibiotics with LNT102 (broth microdilution); format: cell-based; conditions: + PBS or + LNT102 endolysin 1 μM, 37° C. 18 hours
Procedure: (§1) A synergy effect by combination treatment of a polymyxin-based antibiotic having a mechanism acting on the cell membrane of bacterium and endolysin LNT102 purified in Example 2.2 was confirmed. Specifically, after treating 4 μg/ml Polymyxin B to the 96 well microplate row A, serial dilution was performed by ½ in rows B-G. Polymyxin was not treated to the row H. After treating 8 μg/ml Colistin to the 96 well microplate row A, a combination treatment group in which LNT102 endolysin 1 μM was further treated and a PBS treatment group in the same amount were made. All wells were treated with Pseudomonas aeruginosa and Escherichia coli in an amount of 1×10^5 CFU/ml, total 100 μl, respectively. After that, they were cultured at 37° C. for 18 hours.
(§2) The MIC change of the polymyxin-based antibiotics by combination treatment of the polymyxin-base antibiotics (polymyxin B, Colistin) at various concentrations and LNT102 endolysin was measured and shown in Table 5 below.

[4] = system: P. aeruginosa (ATCC 27853); assay: as above; format: cell-based; conditions: + PBS or + LNT102 endolysin 1 μM, 37° C. 18 hours
Procedure: as §1, §2

[5] = system: A. baumannii (ATCC 19606); assay: as above; format: cell-based; conditions: + PBS or + LNT102 endolysin 1 μM, 37° C. 18 hours
[6] = system: gram negative bacteria; assay: MIC change of polymyxin-based antibiotics with LNT102, all strains of Table 5; format: cell-based, P. aeruginosa, A. baumannii, E. coli; conditions: LNT102 endolysin 1 μM; maximum over the strains of Table 5
Procedure: as §1, §2

[7] = system: gram negative bacterium; assay: CFU reduction evaluation on various gram negative bacterium; format: cell-based
Procedure: For this, Endolysin LNT101 and LNT102 at a concentration of 2 μM and each 1×10^6 CFU of Pseudomonas aeruginosa (PA01; ATCC 15692), Acinetobacter baumannii (ATCC 17978), Escherichia coli (ATCC 8739), Klebsiella pneumoniae (ATCC 13883), Enterobacter aerogenes (CCARM 16006), and Salmonella enteritidis (ATCC 13076) was added in reaction buffer (20 mM Tris-Cl, pH 7.5) so that the final volume was 200 μl, and it was left at 37° C. for 2 hours. In 2 hours, the number of colonies of each gram negative bacterium was confirmed, and the result was shown in FIG. 8 (in FIG. 8, PA90 represents endolysin LNT101 and mtPA90 represents endolysin LNT102, respectively).
The endolysin LNT102 at a concentration of 0.1, 0.5, 2.5 μM, and each 1×10^6 CFU of Pseudomonas aeruginosa, Acinetobacter baumannii, and Escherichia coli was added in reaction buffer (20 mM Tris-Cl, pH 7.5) so that the final volume was 200 μl, and it was left at 37° C. for 2 hours.
In order to confirm the killing ability against gram negative bacterium of the fusion polypeptide LNT103 prepared in Example 3.2, CFU reduction evaluation was performed for various gram negative bacterium. In order to perform the CFU reduction evaluation, 2 μM of each of LNT101, LNT102, and LNT103 prepared in Example 3, and 1×10^6 CFU of each of Pseudomonas aeruginosa (PA01; ATCC 15692), Acinetobacter baumannii (ATCC 17978), Escherichia coli (ATCC 8739), Klebsiella pneumoniae (ATCC 13883), and Enterobacter aerogenes (CCARM 16006) were added to reaction buffer (20 mM Tris-Cl, pH7.5) so that the final volume was 200 μl, and it was left at 37° C. for 2 hours. After that, the number of the colonies of each gram negative bacterium was confirmed to compare and evaluate the antibiotic effect of each polypeptide. As a control group, the PBS treatment group (treating PBS in the same volume as the fusion polypeptide) was used.
In addition, the same test was performed by using the fusion polypeptide LNT103, and CecA-LNT101 at a concentration of 2 μM, and the result was shown in FIG. 15. For comparison, the same test was performed for groups treated with LNT102 or PBS.
On the other hand, in order to compare the antibacterial activity in case that a protein other than endolysin (LNT102 or LNT101) was fused to Cecropin A, the killing ability against gram negative bacterium of the fusion polypeptide LNT103 and cecropin A-EGFP fusion protein (a protein in which EGFP (GenBank Accession No. AAB02572.1) having no endolysin activity by replacing LNT102 in LNT103) was evaluated. For this, the proteins were treated in an amount of 0.2 μM or 2 μM, respectively, to perform the CFU reduction test. […] In particular, it could be confirmed that the CFU Counting result for all the tested gram negative bacterium killed all bacterium treated with 0, when LNT103 2 μM was treated.
Furthermore, the killing ability against gram negative bacterium according to the concentration and/or treatment time of the fusion polypeptide LNT103 was tested. Specifically, the fusion polypeptide LNT103 at a concentration of 0.1, 0.3, 0.9, or 2.7 μM and 1×10^6 CFU of Pseudomonas aeruginosa (PA01; ATCC 15692) or Acinetobacter baumannii (ATCC 19606) were added to reaction buffer (20 mM Tris-Cl, pH7.5) so that the final volume was 200 μl, and it was left at 37° C. for 2 hours, and then the number of the colonies was confirmed, and the result was shown in A of FIG. 17.
In addition, the fusion polypeptide LNT103 at a concentration of 2 μM and 1×10^6 CFU of Pseudomonas aeruginosa (PA01; ATCC 15692) were added to reaction buffer (20 mM pH7.5) so that the final volume was 200 μl, and in 0, 20 minutes, 40 minutes and 60 minutes at 37° C., the number of the colonies was confirmed, and the result was shown in B of FIG. 17. […]

Row | Molecule | viability of Galleria mellonella [1] | reduction of MIC of the polymyxin-based antibiotic in combination with LNT101 [2] [%] | MIC of antibiotics [2] [µg/mL] | MIC of the polymyxin-based antibiotic [3] [µg/mL] | MIC of the polymyxin-based antibiotic [4] [µg/mL] | MIC of the polymyxin-based antibiotic [5] [µg/mL] | reduction of MIC of the polymyxin-based antibiotic in combination with LNT102 [6] | counting result ([7]; 2 μM, all the tested bacterium (FIG. 15)) [log CFU/ml] | killing ability (number of colonies) ([7]; 2 μM, 2 hours, 37° C., P. aeruginosa PA01, A. baumannii ATCC 17978, E. coli ATCC 8739, K. pneumoniae ATCC 13883, E. aerogenes CCARM 16006, S. enteritidis ATCC 13076) | killing ability (number of colonies) ([7]; 0.1, 0.5, 2.5 μM, 30 minutes, 1 hour and 2 hours, Pseudomonas aeruginosa, Acinetobacter baumannii, Escherichia coli)
1 | Colistin | the viability was increased | 50 | 8 | 2 | 2 | 2 | reduced by 1/16 times at maximum | – | – | –
2 | polymyxin B | – | 50 | 4 | 0.5 | 0.5 | 0.5 | reduced by 1/16 times at maximum | – | – | –
3 | CecA-LNT101: fusion polypeptide in which Cecropin A was fused to endolysin LNT101; SEQ ID NO: 16 used in the tests (protein, synthetic_Fusion Polypeptide CecA-LNT101 with MAS, His tag, and extra sequence) MASKWKLFKKIEKVGQNIRDGIIKAGPAVAVVGQATQIAKGSGSGSMGTVLKRGDRGSAVEDLQMKLRVAGYAVSADGIFGGDTEKAVRDFQASKALVVDGKVGPATLAELAKSATVPAKWEAIPFPTANKSRSAAMPTLNAVGAMTGTDSRLLATFASIESAFDYTVKASTSSATGWFQFLDATWDDMIKAHGSKYGIPKDPTRALRKDPRANALMGAEFLKGNAAVLRPVINREPSDTDLYLAHFLGAGGAKKFLSADQKTLGEVLFPKPAKANPSIFSNKGVPRTLAEIYKLFEDKVSKHRALEHHHHHH | – | – | – | – | – | – | – | 0 | – | –
4 | LNT102: endolysin LNT101 variant with 15 amino acid mutations, SEQ ID NO: 6, purified with 6× His tag (protein, 6xHis tag; synthetic_Endolysin LNT102) MGTVLKRGDRGSAVEDLQMKLNVAGYNLSADGIFGGDTEKAVRDVQAGAGLVVDGKVGPKTLYAIAKSATVPAKWEAIPFPTANKSRSAAMPTLNAVGAMTGVDSRLLATFASIESAFDYTVKAKTSSATGWFQFLDATWDDMIKAYGSKYGIPKDPTRALRKDPRANALMGAEFIKGNAAVLRPVINREPSDTDLYLAHFLGAGGAKKFLSADQKTLGEVLFPKPAKANPSIFSNKGVPRTLAEIYKLFEDKVSKHRA | – | – | – | – | – | – | – | – | more excellent killing ability against gram negative bacterium in the same dose-, compared to LNT101 | had the killing ability against gram negative bacterium in all the tested treatment doses and time
